In one test the target is PRMT5/MEP50 (Homo sapiens (Human), UniProt O14744). Description: PRMT5 Biochemical Assay (PRMT5/MEP50 enzyme assay on peptide substrate, 3H-SAM Flashplate). The following applies: PRMT5 biochemical assay; read-out: Biochemical IC50.
Test [1] deals with symmetric di-methyl arginine in Z-138 cells. Description: Z-138 Methylation Assay (In Cell Western for symmetric di-methyl arginine and DNA content). To be noted: read-out: ICW EC50. The test is classed as cell-based. The text has this: [formula] Where top and bottom are the normally allowed to float, but may be fixed at 100 or 0 respectively in a 3-parameter fit. The Hill Coefficient normally allowed to float but may also be fixed at 1 in a 3-parameter fit. Y is the % inhibition and X is the compound concentration. Z-138 Methylation Assay
Z-138 suspension cells were purchased from ATCC (American Type Culture Collection, Manassas, Va.). RPMI/Glutamax medium, penicillin-streptomycin, heat inactivated fetal bovine serum, and D-PBS were purchased from Life Technologies, Grand Island, N.Y., USA. Odyssey blocking buffer, 800CW goat anti-rabbit IgG (H+L) antibody, and Licor Odyssey infrared scanner were purchased from Licor Biosciences, Lincoln, Nebr., USA. Symmetric di-methyl arginine antibody was purchased from EMD Millipore, Billerica, Mass., USA. 16% Paraformaldehyde was purchased from Electron Microscopy Sciences, Hatfield, Pa., USA.
Z-138 suspension cells were maintained in growth medium (RPMI 1640 supplemented with 10% v/v heat inactivated fetal bovine serum and 100 units/mL penicillin-streptomycin) and cultured at 37° C. under 5% CO2.
Cell Treatment, in Cell Western (ICW) for Detection of Symmetric Di-Methyl Arginine and DNA Content.
Z-138 cells were seeded in assay medium at a concentration of 50,000 cells per mL to a 384-well cell culture plate with 50 μL per well. Compound (100 nL) from 384 well source plates was added directly to 384 well cell plate. Plates were incubated at 37° C., 5% CO2 for 96 hours. After four days of incubation, 40 μL of cells from incubated plates were added to poly-D-lysine coated 384 well culture plates (BD Biosciences 356697). Plates were incubated at room temperature for 30 minutes then incubated at 37° C., 5% CO2 for 5 hours. After the incubation, 40 μL per well of 8% paraformaldehyde in PBS (16% paraformaldahyde was diluted to 8% in PBS) was added to each plate and incubated for 30 minutes. Plates were transferred to a Biotek 405 plate washer and washed 5 times with 100 μL per well of wash buffer (1×PBS with 0.1% Triton X-100 (v/v)). Next 30 μL per well of Odyssey blocking buffer were added to each plate and incubated 1 hour at room temperature. Blocking buffer was removed and 20 μL per well of primary antibody was added (symmetric di-methyl arginine diluted 1:100 in Odyssey buffer with 0.1% Tween 20 (v/v)) and plates were incubated overnight (16 hours) at 4° C. Plates were washed 5 times with 100 μL per well of wash buffer. Next 20 μL per well of secondary antibody was added (1:200 800CW goat anti-rabbit IgG (H+L) antibody, 1:1000 DRAQ5 (Biostatus limited) in Odyssey buffer with 0.1% Tween 20 (v/v)) and incubated for 1 hour at room temperature. The plates were washed 5 times with 100 μL per well wash buffer then 1 time with 100 μL per well of water. Plates were allowed to dry at room temperature then imaged on the Licor Odyssey machine which measures integrated intensity at 700 nm and 800 nm wavelengths. Both 700 and 800 channels were scanned.
First, the ratio for each well was determined by:
Each plate included fourteen control wells of DMSO only treatment (minimum inhibition) as well as fourteen control wells for maximum inhibition treated with 3 μM of a reference compound (Background wells). The average of the ratio values for each control type was calculated and used to determine the percent inhibition for each test well in the plate. Reference compound was serially diluted three-fold in DMSO for a total of nine test concentrations, beginning at 3 μM. Percent inhibition was determined and IC50 curves were generated using triplicate wells per concentration of compound. […]

A further test concerns Z-138 cell line. Description: Z-138 Proliferation Assay (Cell Titer Glo, 5 days). The format is cell-based. To be noted: Z-138 cells. The text has this:
[formula] Z-138 Proliferation Assay
Z-138 suspension cells were purchased from ATCC (American Type Culture Collection, Manassas, Va.). RPMI/Glutamax medium, penicillin-streptomycin, heat inactivated fetal bovine serum were purchased from Life Technologies, Grand Island, N.Y., USA. V-bottom polypropylene 384-well plates were purchased from Greiner Bio-One, Monroe, N.C., USA. Cell culture 384-well white opaque plates were purchased from Perkin Elmer, Waltham, Mass., USA. Cell-Titer Glo® was purchased from Promega Corporation, Madison, Wis., USA. SpectraMax M5 plate reader was purchased from Molecular Devices LLC, Sunnyvale, Calif., USA.
Z-138 suspension cells were maintained in growth medium (RPMI 1640 supplemented with 10% v/v heat inactivated fetal bovine serum and cultured at 37° C. under 5% CO2 Under assay conditions, cells were incubated in assay medium (RPMI 1640 supplemented with 10% v/v heat inactivated fetal bovine serum and 100 units/mL penicillin-streptomycin) at 37° C. under 5% CO2.
For the assessment of the effect of compounds on the proliferation of the Z-138 cell line, exponentially growing cells were plated in 384-well white opaque plates at a density of 10,000 cells/ml in a final volume of 50 μl of assay medium. A compound source plate was prepared by performing triplicate nine-point 3-fold serial dilutions in DMSO, beginning at 10 mM (final top concentration of compound in the assay was 20 μM and the DMSO was 0.2%). A 100 nL aliquot from the compound stock plate was added to its respective well in the cell plate. […] After addition of compounds, assay plates were incubated for 5 days at 37° C., 5% CO2, relative humidity >90%.
Cell viability was measured by quantitation of ATP present in the cell cultures, adding 35 μl of Cell Titer Glo® reagent to the cell plates. Luminescence was read in the SpectraMax M5 microplate reader. The concentration of compound inhibiting cell viability by 50% was determined using a 4-parametric fit of the normalized dose response curves.
Background: Cellular ATP, detected with luciferase, serves as a proxy for viable cell number.

The mark [2] stands for this setting: Homo sapiens, Z-138, Z-138 cells.

pEC50, pIC50: −log10 of the molar value. Like-named read-outs stand apart in the source and are kept apart here. Bounds are passed on as bounds.

PRMT5/MEP50, sequence (O14744 other isoform, or with tags, fused parts or gaps): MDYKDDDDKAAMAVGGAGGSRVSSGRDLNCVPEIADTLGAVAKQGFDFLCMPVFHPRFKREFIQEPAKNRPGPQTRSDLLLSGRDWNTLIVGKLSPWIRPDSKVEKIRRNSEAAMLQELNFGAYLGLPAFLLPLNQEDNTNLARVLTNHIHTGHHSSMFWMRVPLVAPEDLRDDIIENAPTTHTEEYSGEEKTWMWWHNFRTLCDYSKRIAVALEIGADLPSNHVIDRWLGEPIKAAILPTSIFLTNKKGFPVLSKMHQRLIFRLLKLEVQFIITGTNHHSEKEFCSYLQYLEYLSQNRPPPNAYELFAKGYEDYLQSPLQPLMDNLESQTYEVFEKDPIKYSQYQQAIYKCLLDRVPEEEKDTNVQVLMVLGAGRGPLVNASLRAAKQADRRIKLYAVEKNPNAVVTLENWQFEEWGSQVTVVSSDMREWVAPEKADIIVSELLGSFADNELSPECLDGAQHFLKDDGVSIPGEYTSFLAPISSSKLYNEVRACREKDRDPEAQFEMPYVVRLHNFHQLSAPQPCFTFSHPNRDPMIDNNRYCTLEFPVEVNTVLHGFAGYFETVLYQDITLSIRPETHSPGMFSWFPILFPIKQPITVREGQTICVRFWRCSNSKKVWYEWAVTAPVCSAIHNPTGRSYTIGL
PRMT5/MEP50, sequence (Q9BQA1 other isoform, or with tags, fused parts or gaps partner): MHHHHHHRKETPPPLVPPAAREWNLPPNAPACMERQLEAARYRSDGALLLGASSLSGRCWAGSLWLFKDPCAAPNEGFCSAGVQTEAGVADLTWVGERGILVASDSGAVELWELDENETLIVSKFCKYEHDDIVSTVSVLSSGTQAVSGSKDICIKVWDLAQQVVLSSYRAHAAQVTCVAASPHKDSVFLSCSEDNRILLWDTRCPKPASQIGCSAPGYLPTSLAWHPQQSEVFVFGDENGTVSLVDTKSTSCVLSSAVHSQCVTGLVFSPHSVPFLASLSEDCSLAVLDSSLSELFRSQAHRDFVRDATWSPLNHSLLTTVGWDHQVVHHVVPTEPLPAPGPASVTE

In general, pIC50 refers to −log10 of the IC50, conventionally taken in molar units. What is called pEC50 is the negative decadic logarithm of the EC50, by convention in mol/L. For `CN(CC1CCNC1)S(=O)(=O)c1ccccc1OCC(=O)NC[C@@H](O)CN1CCc2ccccc2C1` (stereo partly drawn) [Compound 220], at PRMT5/MEP50, the pIC50 is more than 7.00. Further, the negative logarithm of the EC50 (pEC50) in test [1] (Z-138 cells) is 6.00 to 7.00; with Z-138 cell line it was 4.30 to 5.00.

As for `NC1CCN(S(=O)(=O)c2ccccc2OCC(=O)NC[C@@H](O)CN2CCc3ccccc3C2)C1` (stereo partly drawn) [Compound 221], on PRMT5/MEP50, the negative-log IC50 (pIC50) was more than 7.00. In addition, the pEC50 in test [1] (setting [2]) was 6.00 to 7.00; in the test on Z-138 cell line (Homo sapiens, Z-138, 120 h) it was 4.30 to 5.00.

Regarding `Cn1c(CCC(=O)NC[C@H](O)CN2CCc3ccccc3C2)nc2ccccc21` [Compound 222], at PRMT5/MEP50, the negative logarithm of the IC50 (pIC50) was 6.00 to 7.00. In addition, the pEC50 was 6.00 to 7.00 in test [1] (setting [2]) and 5.00 to 6.00 in the test on Z-138 cell line (Homo sapiens, Z-138, 120 h).

Consider `O=C(COc1nc2ccccc2[nH]1)NC[C@H](O)CN1CCc2ccccc2C1` [Compound 223], for which the pIC50 on PRMT5/MEP50 is 6.00 to 7.00. The negative-log EC50 (pEC50) in test [1] (setting [2]) is 6.00 to 7.00; in the test on Z-138 cell line (Homo sapiens, Z-138, 120 h), 5.00 to 6.00.

For the molecule `Cc1ccc2[nH]c(CCC(=O)NC[C@H](O)CN3CCc4ccccc4C3)nc2c1` [Compound 224], on PRMT5/MEP50, the pIC50 was more than 7.00. Further, the pEC50 in test [1] (setting [2]) is more than 7.00; in the test on Z-138 cell line (Homo sapiens, Z-138, 120 h) it was 5.00 to 6.00.

Take `O=C(CCc1nc2cc(F)ccc2[nH]1)NC[C@H](O)CN1CCc2ccccc2C1` [Compound 225]: at PRMT5/MEP50, the pIC50 is more than 7.00. For the same molecule, the negative-log EC50 (pEC50) in test [1] (setting [2]) was more than 7.00; in the test on Z-138 cell line (Homo sapiens, Z-138, 120 h) it was 6.00 to 7.00.

Take `O=C(CCc1nc2cc(Cl)ccc2[nH]1)NC[C@H](O)CN1CCc2ccccc2C1` [Compound 226]: the negative logarithm of the IC50 (pIC50) at PRMT5/MEP50 was more than 7.00. The pEC50 in test [1] (setting [2]) was more than 7.00; in the test with Z-138 cell line (Homo sapiens, Z-138, 120 h), 6.00 to 7.00.

On to `O=C(CCc1nc2c(Cl)cccc2[nH]1)NC[C@H](O)CN1CCc2ccccc2C1` [Compound 227], for which the negative logarithm of the IC50 (pIC50) on PRMT5/MEP50 is more than 7.00. The pEC50 in test [1] (setting [2]) is more than 7.00; in the test with Z-138 cell line (Homo sapiens, Z-138, 120 h), 6.00 to 7.00.

For the molecule `CN(C[C@H](O)CN1CCc2ccccc2C1)C(=O)CCc1nc2ccccc2[nH]1` [Compound 228], the pIC50 on PRMT5/MEP50 is more than 7.00. Further, the negative-log EC50 (pEC50) is more than 7.00 in test [1] (setting [2]) and 6.00 to 7.00 in the test on Z-138 cell line (Homo sapiens, Z-138, 120 h).

As for `O=C(CCc1cn2ccccc2n1)NC[C@H](O)CN1CCc2ccccc2C1` [Compound 229], on PRMT5/MEP50, the pIC50 was 6.00 to 7.00. Further, the pEC50 was 6.00 to 7.00 in test [1] (setting [2]) and 4.30 to 5.00 in the test with Z-138 cell line (Homo sapiens, Z-138, 120 h).

Turning to `Cn1cncc1CCNC(=O)c1cccc(OCC(=O)NC[C@@H](O)CN2CCc3ccccc3C2)c1` [Compound 231], at PRMT5/MEP50, the negative-log IC50 (pIC50) was 6.00 to 7.00. The pEC50 was less than 6.00 in test [1] (setting [2]) and less than 4.70 in the test on Z-138 cell line (Homo sapiens, Z-138, 120 h).

Turning to `CN(CC1CNC1)S(=O)(=O)c1ccccc1OCC(=O)NC[C@@H](O)CN1CCc2ccccc2C1` [Compound 232], the negative-log IC50 (pIC50) at PRMT5/MEP50 was more than 7.00. Moreover, the negative logarithm of the EC50 (pEC50) is more than 7.00 in test [1] (setting [2]) and 5.00 to 6.00 in the test on Z-138 cell line (Homo sapiens, Z-138, 120 h).

For `Cn1cnc(-c2cccc(OCC(=O)NC[C@@H](O)CN3CCc4ccccc4C3)c2)c1` [Compound 234], the pIC50 at PRMT5/MEP50 is 6.00 to 7.00. Moreover, the negative-log EC50 (pEC50) in test [1] (setting [2]) was less than 6.00; with Z-138 cell line (Homo sapiens, Z-138, 120 h) it was less than 4.70.

In the case of `O=C(COc1ccccc1[C@@H]1CCCCN1)NC[C@@H](O)CN1CCc2ccccc2C1` [Compound 236], the pIC50 at PRMT5/MEP50 was 6.00 to 7.00. Also, the pEC50 in test [1] (setting [2]) was less than 6.00; in the test with Z-138 cell line (Homo sapiens, Z-138, 120 h), 4.30 to 5.00.

In the case of `O=C(COc1ccccc1C1CNCC(O)C1)NC[C@@H](O)CN1CCc2ccccc2C1` (stereo partly drawn) [Compound 237], the pIC50 on PRMT5/MEP50 was 6.00 to 7.00. Moreover, the negative logarithm of the EC50 (pEC50) is less than 6.00 in test [1] (setting [2]) and less than 4.70 in the test on Z-138 cell line (Homo sapiens, Z-138, 120 h).

As to `CN1CCC(CN(C)S(=O)(=O)c2ccccc2OCC(=O)NC[C@@H](O)CN2CCc3ccccc3C2)C1` (stereo partly drawn) [Compound 238], the pIC50 at PRMT5/MEP50 is more than 7.00. Also, the pEC50 in test [1] (setting [2]) is more than 7.00; in the test with Z-138 cell line (Homo sapiens, Z-138, 120 h), 6.00 to 7.00.

Turning to `O=C(CNc1nc2ccccc2[nH]1)NC[C@H](O)CN1CCc2ccccc2C1` [Compound 239], the pIC50 at PRMT5/MEP50 was more than 7.00. The pEC50 in test [1] (setting [2]) is more than 7.00; with Z-138 cell line (Homo sapiens, Z-138, 120 h) it was 5.00 to 6.00.

`O=C(CCc1ncc[nH]1)NC[C@H](O)CN1CCc2ccccc2C1` [Compound 240]: the negative logarithm of the IC50 (pIC50) at PRMT5/MEP50 was 6.00 to 7.00. For the same molecule, the negative logarithm of the EC50 (pEC50) is 6.00 to 7.00 in test [1] (setting [2]) and 4.30 to 5.00 in the test on Z-138 cell line (Homo sapiens, Z-138, 120 h).

`O=C(CCc1nc2c(F)cccc2[nH]1)NC[C@H](O)CN1CCc2ccccc2C1` [Compound 241]: on PRMT5/MEP50, the pIC50 was more than 7.00. For the same molecule, the pEC50 is more than 7.00 in test [1] (setting [2]) and 6.00 to 7.00 in the test with Z-138 cell line (Homo sapiens, Z-138, 120 h).

Values taken from patent US9745291B2, “PRMT5 inhibitors containing a dihydro- or tetrahydroisoquinoline and uses thereof” (Epizyme, Inc., priority 2012, dated 2017).
